# Data from US11160886B2, “Method for labeling of sensitive and thermosensitive targeting biomolecules with technetium based compounds” (BRACCO IMAGING SPA, priority 2016, dated 2021).
# Columns and labels:
# [1] = Sera and homogenates stability; type: in vitro ADME, human and rat; conditions: human and rat sera, 37° C., 3 h
# Description: Sera and Homogenates Stability.
# The in vitro stability of complex 1, complex 2, complex 9 and complex 11 was evaluated by monitoring the RCP at different time points using the following procedures. In a propylene test tube 50 μl of purified [^99mTc(N)(PNP3OH)]-compound were added to: a) 450 μl of human serum, b) 450 μl of rat serum, c) 450 μl of homogenate of rat liver and d) 450 μl of homogenate of rat kidneys. The resulting mixture was incubated at 37° C. for 4 h.
# The sample was loaded onto a cartridge, preconditioned with MeOH (1 ml) and equilibrated with water (1 ml), and rinsed with MeOH 5% (3 ml). The activity was eluted with a mixture of EtOH/saline 60% (1 ml). Each fraction was collected and the activity measured using a counter (Cobra II, Packard) to determinate the elution profile. 80% of the loaded activity was collected in the elution fraction. An aliquot of this solution (100 μl) was analyzed by HPLC to assess the degradation of the ^99mTc(N)-complexes (FIG. 11).
# [2] = Biodistribution in healthy rats; type: in vivo, Sprague-Dawley rats; conditions: for Pharmacokinetic profile: blood clearance: healthy animals, within the first 60 min p.i.; for Biodistribution: Blood / Biodistribution: Brain / Biodistribution: Heart / Biodistribution: Intestine / Biodistribution: Kidneys / Biodistribution: Liver / Biodistribution: Lungs / Biodistribution: Muscle / Biodistribution: Spleen / Biodistribution: Stomach / Biodistribution: Urine: healthy rats
# Description: Before injection, ^99mTc complexes were purified using a reversed-phase C18 Sep-Pack cartridge to remove the excess of unlabeled ligands. After purification, the activity recovered was further diluted with PBS to obtain a final solution that is <0.5% in EtOH content. The RCP and the stability of the purified complexes were evaluated prior to in vivo administration and for the succeeding 18 h.
# Biodistribution in healthy rats. Biodistribution in healthy rats was performed on complex 1, complex 2 and complex 9 in order to evaluate their pharmacokinetic profile and elimination pathways as well as their resistance to in vivo metabolism. Female Sprague-Dawley rats weighing 180-200 g were anesthetized with an intramuscular injection of a mixture of Zoletil (40 mg/kg) and xylazine (2 mg/kg). A jugular vein was surgically exposed and 100 μl (300-370 kBq) of the solution containing the selected [^99mTc(N)(PNP3OH)]-compound was injected. The rats (n=3) were scarified by cervical dislocation at different times after injection. The blood was withdrawn from the heart with a syringe immediately after death and quantified. Organs were excised, rinsed in saline, weighed, and the activity was counted in a Nal well counter.
# [3] = Stability in the reaction solution as function of pH (FIG. 5); type: physicochemical
# Description: The variation of (%)RCY of complex 1 and complex 2 over the time (30 min vs 18 h), at different conditions, is shown in FIG. 5. […] Alternatively, free PNP3OH was directly used.
# [4] = Challenge reactions (transchelation) with excess Cys, GSH or EDTA, RCP by HPLC; type: physicochemical; conditions: Cys 10 mM; for % RCP after incubation with excess Cys: 37° C.
# Description: The transchelation studies were performed for some compounds monitoring by HPLC the radiochemical purity (RCP) of the complexes in presence of an excess of exchanging ligands over the time. The experiments were performed in triplicate.
# Challenge experiments were carried out on the purified [^99mTc(N)(PNP3OH)]-labeled small size compounds (complex 1, complex 2, complex 9 and complex 10) using an excess of glutathione (GSH) or Cys. An aliquot (50 μl) of an aqueous stock solution of cysteine hydrochloride (10 mM; 1 mM) was added to a propylene test tube containing PB (250 μl, 0.2 M; pH 7.4), water (100 μl) and the selected [^99mTc(N)(PNP3OH)]-compound (100 μl). The mixture was vortexed and incubated at 37° C. for 24 h. A control reaction containing an equal volume of water, instead of cysteine hydrochloride, was studied in parallel. At 30 min, 1, 3 and 24 h, aliquots of the reaction mixture were withdrawn and analyzed by HPLC chromatography. A similar procedure was applied using GSH (50 μl, 10 mM) as challenge ligand.
# For [^99mTc(N)(PNP3OH)(Cys-Gly-Lys-Gly-ApoMb)]^+ (“Cys-Gly-Lys-Gly” disclosed as SEQ ID NO: 1) additional experiments were conducted using EDTA (50 μl, 10 mM) as exchanging ligand.
smiles,measurement,setting,value
"CC(=O)NC1C[S][99Tc](#[N])[O]C1=O.COCCN(CCP(CO)CO)CCP(CO)CO [Complex 1, [^99mTc(N)(PNP3OH)(CysNAc)]]",Sera stability,[1],high sera stability
same,Pharmacokinetic profile: blood clearance,[2],rapid blood clearance
same,Biodistribution: Blood,[2]; 2 min,1.68 ± 0.02 % IA/g
same,Biodistribution: Brain,[2]; 2 min,0.10 ± 0.01 % IA/g
same,Biodistribution: Heart,[2]; 2 min,0.54 ± 0.09 % IA/g
same,Biodistribution: Intestine,[2]; 2 min,0.70 ± 0.02 % IA/g
same,Biodistribution: Kidneys,[2]; 2 min,4.73 ± 0.37 % IA/g
same,Biodistribution: Liver,[2]; 2 min,1.73 ± 0.02 % IA/g
same,Biodistribution: Lungs,[2]; 2 min,1.11 ± 0.22 % IA/g
same,Biodistribution: Muscle,[2]; 2 min,0.32 ± 0.02 % IA/g
same,Biodistribution: Spleen,[2]; 2 min,0.40 ± 0.07 % IA/g
same,Biodistribution: Stomach,[2]; 2 min,0.39 ± 0.05 % IA/g
same,Biodistribution: Blood,[2]; 10 min,0.96 ± 0.03 % IA/g
same,Biodistribution: Brain,[2]; 10 min,0.05 ± 0.01 % IA/g
same,Biodistribution: Heart,[2]; 10 min,0.27 ± 0.01 % IA/g
same,Biodistribution: Intestine,[2]; 10 min,2.85 ± 0.67 % IA/g
same,Biodistribution: Kidneys,[2]; 10 min,4.07 ± 0.67 % IA/g
same,Biodistribution: Liver,[2]; 10 min,2.27 ± 0.01 % IA/g
same,Biodistribution: Lungs,[2]; 10 min,0.68 ± 0.03 % IA/g
same,Biodistribution: Muscle,[2]; 10 min,0.14 ± 0.01 % IA/g
same,Biodistribution: Spleen,[2]; 10 min,0.26 ± 0.00 % IA/g
same,Biodistribution: Stomach,[2]; 10 min,0.41 ± 0.09 % IA/g
same,Biodistribution: Urine,[2]; 10 min,31.28 ± 4.07 % IA/g
same,Biodistribution: Blood,[2]; 30 min,0.43 ± 0.09 % IA/g
same,Biodistribution: Brain,[2]; 30 min,0.04 ± 0.01 % IA/g
same,Biodistribution: Heart,[2]; 30 min,0.17 ± 0.07 % IA/g
same,Biodistribution: Intestine,[2]; 30 min,5.46 ± 3.28 % IA/g
same,Biodistribution: Kidneys,[2]; 30 min,2.47 ± 0.04 % IA/g
same,Biodistribution: Liver,[2]; 30 min,1.28 ± 0.03 % IA/g
same,Biodistribution: Lungs,[2]; 30 min,0.38 ± 0.15 % IA/g
same,Biodistribution: Muscle,[2]; 30 min,0.11 ± 0.00 % IA/g
same,Biodistribution: Spleen,[2]; 30 min,0.10 ± 0.01 % IA/g
same,Biodistribution: Stomach,[2]; 30 min,0.35 ± 0.02 % IA/g
same,Biodistribution: Blood,[2]; 60 min,0.11 ± 0.00 % IA/g
same,Biodistribution: Brain,[2]; 60 min,0.01 ± 0.00 % IA/g
same,Biodistribution: Heart,[2]; 60 min,0.06 ± 0.01 % IA/g
same,Biodistribution: Intestine,[2]; 60 min,10.07 ± 0.26 % IA/g
same,Biodistribution: Kidneys,[2]; 60 min,1.15 ± 0.12 % IA/g
same,Biodistribution: Liver,[2]; 60 min,0.99 ± 0.13 % IA/g
same,Biodistribution: Lungs,[2]; 60 min,0.14 ± 0.01 % IA/g
same,Biodistribution: Muscle,[2]; 60 min,0.08 ± 0.03 % IA/g
same,Biodistribution: Spleen,[2]; 60 min,0.10 ± 0.01 % IA/g
same,Biodistribution: Stomach,[2]; 60 min,0.24 ± 0.12 % IA/g
same,Biodistribution: Urine,[2]; 60 min,58.89 ± 2.27 % IA/g
same,Biodistribution: Blood,[2]; 120 min,0.06 ± 0.01 % IA/g
same,Biodistribution: Brain,[2]; 120 min,0.01 ± 0.00 % IA/g
same,Biodistribution: Heart,[2]; 120 min,0.02 ± 0.00 % IA/g
same,Biodistribution: Intestine,[2]; 120 min,0.57 ± 0.05 % IA/g
same,Biodistribution: Kidneys,[2]; 120 min,0.77 ± 0.26 % IA/g
same,Biodistribution: Liver,[2]; 120 min,0.54 ± 0.05 % IA/g
same,Biodistribution: Lungs,[2]; 120 min,0.10 ± 0.01 % IA/g
same,Biodistribution: Muscle,[2]; 120 min,0.02 ± 0.00 % IA/g
same,Biodistribution: Spleen,[2]; 120 min,0.09 ± 0.01 % IA/g
same,Biodistribution: Stomach,[2]; 120 min,0.25 ± 0.06 % IA/g
same,Biodistribution: Urine,[2]; 120 min,55.74 ± 14.87 % IA/g
same,Stability in the reaction solution,[3]; pH 7.4,stable within 18 h
same,Stability in the reaction solution,[3]; pH 9,a progressive degradation was observed
"CCOC(=O)C(N)C[S][99Tc+]#[N].COCCN(CCP(CO)CO)CCP(CO)CO [Complex 2, [^99mTc(N)(PNP3OH)(CysOEt)]^+]",Sera stability,[1],high sera stability
same,Pharmacokinetic profile: blood clearance,[2],rapid blood clearance
same,Biodistribution: Blood,[2]; 2 min,0.99 ± 0.18 % IA/g
same,Biodistribution: Brain,[2]; 2 min,0.05 ± 0.00 % IA/g
same,Biodistribution: Heart,[2]; 2 min,0.41 ± 0.07 % IA/g
same,Biodistribution: Intestine,[2]; 2 min,0.39 ± 0.09 % IA/g
same,Biodistribution: Kidneys,[2]; 2 min,5.38 ± 0.22 % IA/g
same,Biodistribution: Liver,[2]; 2 min,0.99 ± 0.28 % IA/g
same,Biodistribution: Lungs,[2]; 2 min,0.87 ± 0.17 % IA/g
same,Biodistribution: Muscle,[2]; 2 min,0.19 ± 0.07 % IA/g
same,Biodistribution: Spleen,[2]; 2 min,0.23 ± 0.01 % IA/g
same,Biodistribution: Stomach,[2]; 2 min,0.49 ± 0.05 % IA/g
same,Biodistribution: Urine,[2]; 2 min,16.32 ± 0.00 % IA/g
same,Biodistribution: Blood,[2]; 10 min,0.62 ± 0.11 % IA/g
same,Biodistribution: Brain,[2]; 10 min,0.07 ± 0.01 % IA/g
same,Biodistribution: Heart,[2]; 10 min,0.26 ± 0.01 % IA/g
same,Biodistribution: Intestine,[2]; 10 min,1.35 ± 0.19 % IA/g
same,Biodistribution: Kidneys,[2]; 10 min,6.20 ± 0.51 % IA/g
same,Biodistribution: Liver,[2]; 10 min,1.56 ± 0.06 % IA/g
same,Biodistribution: Lungs,[2]; 10 min,0.50 ± 0.04 % IA/g
same,Biodistribution: Muscle,[2]; 10 min,0.17 ± 0.04 % IA/g
same,Biodistribution: Spleen,[2]; 10 min,0.17 ± 0.00 % IA/g
same,Biodistribution: Stomach,[2]; 10 min,0.44 ± 0.08 % IA/g
same,Biodistribution: Urine,[2]; 10 min,25.65 ± 16.29 % IA/g
same,Biodistribution: Blood,[2]; 30 min,0.62 ± 0.06 % IA/g
same,Biodistribution: Brain,[2]; 30 min,0.05 ± 0.03 % IA/g
same,Biodistribution: Heart,[2]; 30 min,0.23 ± 0.02 % IA/g
same,Biodistribution: Intestine,[2]; 30 min,1.26 ± 0.42 % IA/g
same,Biodistribution: Kidneys,[2]; 30 min,6.43 ± 2.44 % IA/g
same,Biodistribution: Liver,[2]; 30 min,1.85 ± 0.13 % IA/g
same,Biodistribution: Lungs,[2]; 30 min,0.43 ± 0.00 % IA/g
same,Biodistribution: Muscle,[2]; 30 min,0.21 ± 0.01 % IA/g
same,Biodistribution: Spleen,[2]; 30 min,0.15 ± 0.00 % IA/g
same,Biodistribution: Stomach,[2]; 30 min,0.32 ± 0.02 % IA/g
same,Biodistribution: Urine,[2]; 30 min,17.06 ± 0.00 % IA/g
same,Biodistribution: Blood,[2]; 60 min,0.24 ± 0.06 % IA/g
same,Biodistribution: Brain,[2]; 60 min,0.02 ± 0.01 % IA/g
same,Biodistribution: Heart,[2]; 60 min,0.09 ± 0.03 % IA/g
same,Biodistribution: Intestine,[2]; 60 min,2.92 ± 0.26 % IA/g
same,Biodistribution: Kidneys,[2]; 60 min,2.63 ± 1.43 % IA/g
same,Biodistribution: Liver,[2]; 60 min,1.83 ± 0.05 % IA/g
same,Biodistribution: Lungs,[2]; 60 min,0.19 ± 0.05 % IA/g
same,Biodistribution: Muscle,[2]; 60 min,0.07 ± 0.04 % IA/g
same,Biodistribution: Spleen,[2]; 60 min,0.11 ± 0.05 % IA/g
same,Biodistribution: Stomach,[2]; 60 min,0.20 ± 0.12 % IA/g
same,Biodistribution: Urine,[2]; 60 min,40.14 ± 0.00 % IA/g
same,Biodistribution: Blood,[2]; 120 min,0.09 ± 0.09 % IA/g
same,Biodistribution: Brain,[2]; 120 min,0.01 ± 0.01 % IA/g
same,Biodistribution: Heart,[2]; 120 min,0.06 ± 0.06 % IA/g
same,Biodistribution: Intestine,[2]; 120 min,6.23 ± 0.35 % IA/g
same,Biodistribution: Kidneys,[2]; 120 min,1.67 ± 1.04 % IA/g
same,Biodistribution: Liver,[2]; 120 min,0.29 ± 0.77 % IA/g
same,Biodistribution: Lungs,[2]; 120 min,0.15 ± 0.14 % IA/g
same,Biodistribution: Muscle,[2]; 120 min,0.04 ± 0.04 % IA/g
same,Biodistribution: Spleen,[2]; 120 min,0.07 ± 0.04 % IA/g
same,Biodistribution: Stomach,[2]; 120 min,0.31 ± 0.16 % IA/g
same,Biodistribution: Urine,[2]; 120 min,20.10 ± 6.28 % IA/g
same,Stability in the reaction solution,[3]; pH 7.4,stable within 18 h
same,Stability in the reaction solution,[3]; pH 9,a progressive degradation was observed
same,% RCP after incubation with excess Cys,[4]; 3 h,65.93%
same,% RCP after incubation with excess Cys,[4]; 24 h,23.32%
same,Stability toward Cys transchelation relative to neutral complexes,[4]; versus complex 1 and complex 11,higher stability toward Cys transchelation
